The target in assay [1] is human prostanoid EP2 receptor (Homo sapiens (Human), UniProt P43116). Put plainly: Human prostanoid EP2 receptor cellular functional assay (cAMP, HTRF). The assay is classed as cell-based. To be noted: percent of control specific agonist response (10 μM PGE2). How it is done: Test 1.2: Human Prostanoid EP2 Receptor Cellular Functional Assay
Human CHO cells expressing the recombinant human prostanoid EP2 receptor were suspended in assay medium (HBSS buffer (Invitrogen) containing 20 mM HEPES (pH7.4) and 500 μM isobutyl-methylxanthine IBMX) and plated out to yield approximately 1×10^4 cells/well in a 96-well. Following this, cells were incubated with agonists for 30 min in the presence of the test compounds. For stimulated control measurements, separate assay wells contain 10 μM PGE2 (control specific agonist). All incubations were carried out at 37° C. in a 5% CO2 atmosphere. Following incubation, the amount of cAMP in each well was determined by HTRF method. The cells are lysed and the fluorescence acceptor (D2-labeled cAMP) and fluorescence donor (anti-cAMP antibody labeled with europium cryptate) are added. After 60 min at room temperature, the fluorescence transfer is measured at λex=337 nm and λem=620 and 665 nm using a microplate reader (Rubystar, BMG).
The cAMP concentration is determined by dividing the signal measured at 665 nm by that measured at 620 nm (ratio).
The standard reference agonist PGE2 was tested at several concentrations to generate a concentration-response curve to determined EC50.
Analysis and Expression of Results […]
On the technique in general: In TR-FRET formats the signal depends on donor and acceptor labels being close together.

Assay [2] has as its system laser-induced glaucomatous monkeys. Put plainly: Laser-induced hypertensive cynomolgus monkey, intraocular pressure. It counts as in vivo. To be noted: 0.01% topically to glaucomatous eye once daily for 5 days. How it is done: Laser-Induced Hypertensive Cynomolgus Monkey
Ten adult female cynomolgus monkeys, each weighing 3-5 kg, in which glaucoma had been induced unilaterally by diode laser photocoagulation of the mid-trabecular meshwork, were used in this study.
Intraocular pressure (IOP) was measured at 0 hr (before drug administration) and then hourly until 6 hrs after drug administration on one baseline day, one vehicle-treatment day, and treatment days 1, 3, and 5 with 0.01% of compound II(d).
Compound II(d) was tested in two groups of 4 monkeys for a total of 8 monkeys. Following one baseline day (untreated) and one vehicle-treatment day (50 μl (25 μl×2), drop of vehicle to the glaucomatous eye at 9:30 (a 50 μl drop (25 μl×2) of compound (II(d)) were topically applied to the glaucomatous eye only once daily at 9:30 am for 5 consecutive days.
Slit-lamp examination for the detection of aqueous humor flare and cells was performed in a dark room before drug administration and at 1, 3 and 5 hrs after dosing on baseline day and at the same times on treatment days 1, 3 and 5.
Two-tailed paired and unpaired t test and the ANOVA test were used for statistical analysis.

human prostanoid EP2 receptor, sequence (P43116 whole entry): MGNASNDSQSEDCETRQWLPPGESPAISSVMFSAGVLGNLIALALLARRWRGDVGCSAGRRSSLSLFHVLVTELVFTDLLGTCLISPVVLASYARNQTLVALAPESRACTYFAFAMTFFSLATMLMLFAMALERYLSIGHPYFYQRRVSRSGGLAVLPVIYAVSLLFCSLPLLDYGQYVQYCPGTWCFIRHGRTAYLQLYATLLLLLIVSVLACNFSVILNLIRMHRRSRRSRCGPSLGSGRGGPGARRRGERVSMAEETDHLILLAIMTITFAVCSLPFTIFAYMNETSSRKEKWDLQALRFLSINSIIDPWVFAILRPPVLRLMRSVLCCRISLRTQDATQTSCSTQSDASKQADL

Take `C[C@@H](Nc1c(F)ccc(OCC(=O)O)c1F)c1cc(-c2cccc(F)c2)ccc1F` (single isomer, unassigned) [I(as) (+isomer)]: the “In vitro functional assay % response” value in assay [1] was 124%.

`CC(C)OC(=O)COc1ccc(F)c(NCc2cc(-c3cccc(F)c3)ccc2F)c1F` [II(d), Isopropyl 2-[2,4-difluoro-3-[[2-fluoro-5-(3-fluorophenyl)phenyl]methylamino]phenoxy]acetate]: in assay [2], the “overall IOP reduction” value worked out at 22%.

The values above are taken from patent US9624159B2, “Aniline derivatives, their preparation and their therapeutic application” (SANOFI, priority 2011, dated 2017).
